Results: PubChem BioAssay (NCI)
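Step 1: Grow cells in 96-well plates. Step 2: Expose to compound for 48 hours at 5 concentrations. Step 3: Interpolate endpoints linearly; if unreached, use highest concentration. Abbreviation: GI50, concentration required for 50% inhibition of growth. TGI: total growth inhibition.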

Columns and labels:
Test in all cases: growth of human tumour cells (NCI), 48 h
OVCAR-4 ovarian = system: OVCAR-4 ovarian
NCI-H460 lung = system: NCI-H460 lung
U251 CNS = system: U251 CNS
OVCAR-3 ovarian = system: OVCAR-3 ovarian
SN12C renal = system: SN12C renal
OVCAR-8 ovarian = system: OVCAR-8 ovarian
HCT-116 colon = system: HCT-116 colon
HS 578T breast = system: HS 578T breast
MCF7 breast = system: MCF7 breast
T-47D breast = system: T-47D breast

SMILES | TGI (OVCAR-4 ovarian) [µM] | TGI (NCI-H460 lung) [µM] | TGI (U251 CNS) [µM] | TGI (OVCAR-3 ovarian) [µM] | TGI (SN12C renal) [µM] | TGI (OVCAR-8 ovarian) [µM] | TGI (HCT-116 colon) [µM] | TGI (HS 578T breast) [µM] | TGI (MCF7 breast) [µM] | TGI (T-47D breast) [µM] | GI50 (NCI-H460 lung) [µM] | GI50 (U251 CNS) [µM] | GI50 (OVCAR-3 ovarian) [µM] | GI50 (SN12C renal) [µM] | GI50 (OVCAR-8 ovarian) [µM] | GI50 (HS 578T breast) [µM] | GI50 (HCT-116 colon) [µM] | GI50 (MCF7 breast) [µM] | GI50 (T-47D breast) [µM]
CCCC(C(=O)OC)C1N=C(NC#N)N(Cc2ccccc2)C1=O (stereo not given) | > 100 | > 100 | > 100 | > 100 | > 100 | > 100 | > 100 | – | – | – | – | – | – | – | – | – | – | – | –
O=C1N[C@H](C(=O)O)[C@@H](c2ccc(OCc3ccccc3)cc2)O1 | > 100 | – | > 100 | > 100 | > 100 | 45.8 | > 100 | > 100 | > 100 | > 100 | – | – | – | – | – | – | – | – | –
CC(C)C(CCOS(=O)(=O)O)CCC(C)[C@H]1[C@@H](O)C(O)C2[C@]3(O)C[C@@H](O)C4(O)C[C@@H](O)CC[C@]4(C)C3CC[C@@]21C (stereo not given in full) | > 100 | > 100 | > 100 | > 100 | > 100 | > 100 | > 100 | – | – | – | – | – | – | – | – | – | – | – | –
CC1CCc2c(sc3ncnc(N/N=C/c4ccc(Cl)cc4)c23)C1 (stereo not given) | – | > 100 | > 100 | > 100 | > 100 | > 100 | > 100 | – | – | – | – | – | – | – | – | – | – | – | –
CC(N)C(C)c1ccccc1 (stereo not given) | > 100 | > 100 | > 100 | > 100 | > 100 | > 100 | > 100 | – | – | – | – | – | – | – | – | – | – | – | –
CC(C)c1c(O[Si](C(C)C)(C(C)C)C(C)C)cc2c(c1O)CC[C@H]1C(C)(C)CCC[C@]21C | > 100 | > 100 | > 100 | > 100 | > 100 | > 100 | > 100 | > 100 | > 100 | – | – | – | – | – | – | – | – | – | –
COc1ccc(Nc2cc(=O)[nH]c(=O)[nH]2)cc1 | > 100 | > 100 | > 100 | > 100 | > 100 | > 100 | > 100 | > 100 | > 100 | – | – | – | – | – | – | – | – | – | –
CCOC(=O)c1cc([N+](=O)[O-])c(Sc2ncnc3nc[nH]c23)c([N+](=O)[O-])c1 | – | 25.6 | 22.8 | 7.52 | 30.6 | 17.9 | 3.94 | 49.1 | 3.41 | 30 | – | – | – | – | – | – | – | – | –
O=c1c2cc([N+](=O)[O-])ccc2n2n1CCCCC2 | > 100 | > 100 | > 100 | > 100 | > 100 | > 100 | > 100 | > 100 | – | – | – | – | – | – | – | – | – | – | –
COc1ccc(CNc2nc3cc(C(F)(F)F)ccc3nc2C(=O)O)cc1 | > 100 | > 100 | > 100 | 34.1 | 62.6 | > 100 | 41 | – | 64.9 | > 100 | – | – | – | – | – | – | – | – | –
C=C1CC[C@@H]2[C@](C)(COC(=O)CCC(=O)O)CCC[C@@]2(C)[C@@H]1CCC1=CC(=O)OC1 | > 100 | – | > 100 | > 100 | > 100 | > 100 | > 100 | > 100 | > 100 | > 100 | – | – | – | – | – | – | – | – | –
C=CCOCn1cnc2c(=O)[nH]c(N)nc21 | > 100 | > 100 | > 100 | – | > 100 | > 100 | > 100 | > 100 | > 100 | > 100 | – | – | – | – | – | – | – | – | –
C=C(C)CCC(O)[C@](C)(O)[C@H]1[C@H](O)C[C@@]2(C)[C@@H]3CCc4c(cc(OC5OC(CO)C(O)C(O)C5O)c(O)c4C)C3(C)C(=O)C[C@]12C (stereo not given in full) | > 100 | > 100 | > 100 | > 100 | > 100 | > 100 | > 100 | – | > 100 | > 100 | – | – | – | – | – | – | – | – | –
Cc1cccc(-c2nc(-c3cnccn3)n(Cc3ccccc3)n2)c1 | > 100 | > 100 | > 100 | > 100 | > 100 | > 100 | > 100 | – | > 100 | > 100 | – | – | – | – | – | – | – | – | –
Cc1ccc(S(=O)(=O)Nn2c(S)c(C#N)c(-c3ccc(Cl)cc3)c(C#N)c2=O)cc1 | 43.2 | 31.4 | 58 | > 100 | 69.7 | 50.8 | > 100 | – | > 100 | – | – | – | – | – | – | – | – | – | –
CC(=O)OCC1OC(O[C@H]2C=C[C@@H](C(=O)OCc3ccccc3)n3c(=O)n(-c4ccccc4)c(=O)n32)C(OC(C)=O)C(OC(C)=O)C1OC(C)=O (stereo not given in full) | 6.89 | 3.05 | 4.81 | 3.18 | 3.88 | 7.41 | – | 4.55 | – | 8.33 | – | – | – | – | – | – | – | – | –
COCCCNc1c2ccccc2nc2ccccc12 | 20.6 | 3.55 | – | 7.55 | 15.1 | 15.5 | 15.7 | 9.32 | 5.27 | 6.89 | – | – | – | – | – | – | – | – | –

SMILES | TGI (OVCAR-4 ovarian) [µM] | TGI (NCI-H460 lung) [µM] | TGI (U251 CNS) [µM] | TGI (OVCAR-3 ovarian) [µM] | TGI (SN12C renal) [µM] | TGI (OVCAR-8 ovarian) [µM] | TGI (HCT-116 colon) [µM] | TGI (HS 578T breast) [µM] | TGI (MCF7 breast) [µM] | TGI (T-47D breast) [µM] | GI50 (NCI-H460 lung) [µM] | GI50 (U251 CNS) [µM] | GI50 (OVCAR-3 ovarian) [µM] | GI50 (SN12C renal) [µM] | GI50 (OVCAR-8 ovarian) [µM] | GI50 (HS 578T breast) [µM] | GI50 (HCT-116 colon) [µM] | GI50 (MCF7 breast) [µM] | GI50 (T-47D breast) [µM]
COc1cc(N(CCCl)CCCl)ccc1/C=N\NC(=O)c1cccnc1 | – | 25.4 | > 100 | 50.4 | > 100 | > 100 | > 100 | > 100 | > 100 | > 100 | 0.403 | 23.8 | 21 | 30 | 26.5 | 32.6 | 26 | 23.8 | 11.4
COc1ccc(-c2cc(=O)c3cc(O)ccc3o2)c(OC)c1OC | > 100 | – | – | 46.3 | > 100 | – | 61.8 | – | – | – | – | – | – | – | – | – | – | – | –
C=C(C)[C@H]1CC(=O)[C@@]2(C)C[C@H]3O[C@]3(C)CC/C=C(\C)CC[C@H]12 | > 100 | > 100 | > 100 | 80.1 | 54.9 | > 100 | 85.4 | – | 57.3 | > 100 | – | – | – | – | – | – | – | – | –
NC(CSCSCC(N)C(=O)O)C(=O)O (stereo not given) | > 225 | > 225 | > 225 | > 225 | > 225 | > 22.5 | > 225 | – | > 225 | – | – | – | – | – | – | – | – | – | –
COc1cc(OC)c(/C=N\Nc2nc3ccccc3c(=O)n2-c2ccccc2)c(OC)c1 | > 86.1 | > 77.8 | > 100 | 50.9 | 98.8 | > 64 | 40.6 | – | > 73.8 | 64.5 | – | – | – | – | – | – | – | – | –
O=C(O)c1ccc(Nc2cnc3cc(C(F)(F)F)ccc3n2)cc1 | – | > 100 | > 100 | > 100 | > 100 | > 100 | > 100 | > 100 | > 100 | 53.8 | – | – | – | – | – | – | – | – | –
CCCCCCc1cc2cc(C(=O)Nc3cccc(F)c3)c(=N)oc2cc1O | 12.3 | > 100 | 6.58 | 23.7 | – | 3.56 | 11.1 | 6.81 | 11.7 | 7.35 | – | – | – | – | – | – | – | – | –
C/C(CCN(C)C)=N\OC(=O)c1ccccc1 | > 100 | > 100 | > 100 | > 100 | > 100 | > 100 | > 100 | – | – | – | – | – | – | – | – | – | – | – | –
O=C1c2ccccc2C(=O)N1NC1=NCCN1 | > 100 | > 100 | > 100 | > 100 | > 100 | > 100 | > 100 | – | > 100 | > 100 | – | – | – | – | – | – | – | – | –
O=C1OC(c2ccccc2Br)=N/C1=C/c1ccccc1 | > 100 | > 100 | 69.7 | 35.4 | – | 59.6 | > 100 | > 100 | > 100 | > 100 | – | – | – | – | – | – | – | – | –
O=C(NC(OCc1ccccc1)(C(F)(F)F)C(F)(F)F)OCc1ccccc1 | – | 29.6 | 27.1 | 28.6 | 29.4 | 30.1 | 29.9 | 31.3 | 30.1 | 29.4 | – | – | – | – | – | – | – | – | –
O[C@@]12Cc3c([nH]c4ccccc34)[C@@H]3Oc4c(-c5ccccc5)ccc5c4[C@@]31CCN(CC1CC1)[C@@H]2C5 | 7.03 | 3.36 | 3.09 | 3.04 | – | 5.01 | 3.1 | 4.62 | 3.22 | 4.71 | – | – | – | – | – | – | – | – | –
COc1ccc(/C=C/C(=O)CCN2CCN(CCC(=O)/C=C/c3ccc(OC)cc3)CC2)cc1 | 50 | 23.1 | 26.6 | 28.8 | 26 | 42.4 | 11.1 | 70 | 13.6 | – | – | – | – | – | – | – | – | – | –
COC(=O)c1c2c(cc3c1CC1(C3)Cc3cc4c(c(C(=O)OC)c3C1)CCC4)CCC2 | > 100 | – | > 100 | > 100 | > 100 | > 100 | > 100 | > 100 | > 100 | > 100 | – | – | – | – | – | – | – | – | –
CCCCCCCCCCCCc1ccsc1-c1ccc(-c2ccc(-c3sccc3CCCCCCCCCCCC)s2)s1 | – | > 100 | > 100 | > 100 | > 100 | > 100 | > 100 | > 100 | > 100 | > 100 | – | – | – | – | – | – | – | – | –
CC(C)=CCc1cc(/C=C/C(=O)O)cc(CC=C(C)C)c1O | > 100 | > 100 | > 100 | > 100 | > 100 | > 100 | > 100 | > 100 | > 100 | – | – | – | – | – | – | – | – | – | –
O=C1CN(c2ccccc2)C(=O)CN1NCNN1CC(=O)N(c2ccccc2)CC1=O | > 100 | > 100 | > 100 | > 100 | > 100 | > 100 | > 100 | > 100 | > 100 | – | – | – | – | – | – | – | – | – | –
